Experimental data taken from ChEMBL document CHEMBL1141476, “Novel echinocandin antifungals. Part 1: novel side-chain analogs of the natural product FR901379” (Bioorg Med Chem Lett, 2008).
In brackets after ≈: the same amount, converted by molar mass. Starred links: 1 amine or outer side, 2 acyl side, 3 side chain; linkers in the order of their positions; H or OH if unused. Positions of bridges follow the written chain, without caps; N, C: chain ends. Non-standard residues stand in square brackets, D forms with d. Residues, ends and D or L forms follow the SMILES beside them. *: point of attachment. hTyr(3S-OH,4S-OH,3'-OSO3H) = N[C@H](C(=O)O)[C@H](O)[C@@H](O)c1ccc(O)c(OS(=O)(=O)O)c1; Orn(4R-OH,5R-OH) = O=C([C@H](C[C@@H](O)[C@@H](O)N[*:3])N[*:1])[*:2]; Orn(4R-OH,5S-OH) = O=C([C@H](C[C@@H](O)[C@H](O)N[*:3])N[*:1])[*:2]; Pro(3S-OH,4S-Me) = C[C@H]1CN[C@H](C(=O)O)[C@H]1O; X1 = CCCCOc1ccc(-c2ccc(-c3ccc(C(=O)*)cc3)cc2)cc1; Benzoyl(4-octyloxy) = CCCCCCCCOc1ccc(C(=O)*)cc1; Gln(3R-OH) = NC(=O)C[C@@H](O)[C@H](N)C(=O)O; Hyp = O=C(O)[C@@H]1C[C@@H](O)CN1

Columns and labels:
[1] = test system: Aspergillus fumigatus; assay: Antifungal activity against Aspergillus fumigatus FP1305; type: functional, organism-based
[2] = Effect on hemolysis in red blood cells; type: ADME, cell-based, Erythrocyte
[3] = test system: Aspergillus fumigatus; assay: Antifungal activity against Aspergillus fumigatus 8004 in in vivo model; type: functional
[4] = test system: Candida albicans; assay: Antifungal activity against Candida albicans FP633; type: functional
[5] = test system: Candida albicans; assay: Antifungal activity against Candida albicans FP633 in in vivo model; type: functional

**Q.** Which results are given for `CCCCCCCCOc1ccc2cc(C(=O)N[C@@H]3C[C@@H](O)[C@@H](O)NC(=O)[C@@H]4[C@@H](O)[C@@H](C)CN4C(=O)[C@H]([C@H](O)CC(N)=O)NC(=O)[C@H]([C@H](O)[C@@H](O)c4ccc(O)c(OS(=O)(=O)[O-])c4)NC(=O)[C@@H]4C[C@@H](O)CN4C(=O)C([C@@H](C)O)NC3=O)ccc2c1.[Na+]` (stereo not given in full)?
**A.** IC50 [1]: 0.003 µg/mL; LC30 [2]: > 10000 µg/mL; ED50 [3]: 0.79 mg/kg; MIC [4]: 0.1 µg/mL; ED50 [5]: 0.46 mg/kg

**Q.** Which IC50 [1] does the source give for `CCCCCCCCCCOc1ccc2cc(C(=O)N[C@@H]3C[C@@H](O)[C@@H](O)NC(=O)[C@@H]4[C@@H](O)[C@@H](C)CN4C(=O)[C@H]([C@H](O)CC(N)=O)NC(=O)[C@H]([C@H](O)[C@@H](O)c4ccc(O)c(OS(=O)(=O)[O-])c4)NC(=O)[C@@H]4C[C@@H](O)CN4C(=O)C([C@@H](C)O)NC3=O)ccc2c1.[Na+]` (stereo not given in full) here?
**A.** 0.015 µg/mL

**Q.** And the LC30 [2]?
**A.** 750 µg/mL

**Q.** What about the MIC [4] of the same compound?
**A.** 0.2 µg/mL

**Q.** Which results are given for `CCCCCCCOc1ccc(-c2ccc(C(=O)N[C@@H]3C[C@@H](O)[C@@H](O)NC(=O)[C@@H]4[C@@H](O)[C@@H](C)CN4C(=O)[C@H]([C@H](O)CC(N)=O)NC(=O)[C@H]([C@H](O)[C@@H](O)c4ccc(O)c(OS(=O)(=O)[O-])c4)NC(=O)[C@@H]4C[C@@H](O)CN4C(=O)C([C@@H](C)O)NC3=O)cc2)cc1.[Na+]` (stereo not given in full)?
**A.** IC50 [1]: 0.002 µg/mL; LC30 [2]: 910 µg/mL; MIC [4]: 0.1 µg/mL

**Q.** For `CCCCCCOc1ccc2cc(C(=O)N[C@@H]3C[C@@H](O)[C@@H](O)NC(=O)[C@@H]4[C@@H](O)[C@@H](C)CN4C(=O)[C@H]([C@H](O)CC(N)=O)NC(=O)[C@H]([C@H](O)[C@@H](O)c4ccc(O)c(OS(=O)(=O)[O-])c4)NC(=O)[C@@H]4C[C@@H](O)CN4C(=O)C([C@@H](C)O)NC3=O)ccc2c1.[Na+]` (stereo not given in full), which IC50 [1] is on record?
**A.** 0.025 µg/mL

**Q.** What about the LC30 [2] of the same compound?
**A.** > 10000 µg/mL

**Q.** What about the MIC [4] of the same compound?
**A.** 0.78 µg/mL

**Q.** For `CCCCCCCCCCCCOc1ccc2cc(C(=O)N[C@@H]3C[C@@H](O)[C@@H](O)NC(=O)[C@@H]4[C@@H](O)[C@@H](C)CN4C(=O)[C@H]([C@H](O)CC(N)=O)NC(=O)[C@H]([C@H](O)[C@@H](O)c4ccc(O)c(OS(=O)(=O)[O-])c4)NC(=O)[C@@H]4C[C@@H](O)CN4C(=O)C([C@@H](C)O)NC3=O)ccc2c1.[Na+]` (stereo not given in full), which LC30 [2] is on record?
**A.** 410 µg/mL

**Q.** And the MIC [4]?
**A.** 0.78 µg/mL

**Q.** Which results are given for `CCCCCCCCOc1ccc(/C=C/C(=O)N[C@@H]2C[C@@H](O)[C@@H](O)NC(=O)[C@@H]3[C@@H](O)[C@@H](C)CN3C(=O)[C@H]([C@H](O)CC(N)=O)NC(=O)[C@H]([C@H](O)[C@@H](O)c3ccc(O)c(OS(=O)(=O)[O-])c3)NC(=O)[C@@H]3C[C@@H](O)CN3C(=O)C([C@@H](C)O)NC2=O)cc1.[Na+]` (stereo not given in full)?
**A.** LC30 [2]: > 10000 µg/mL; MIC [4]: 0.78 µg/mL

**Q.** Which results are given for `CCCCCOc1ccc(-c2ccc(/C=C/C(=O)N[C@@H]3C[C@@H](O)[C@@H](O)NC(=O)[C@@H]4[C@@H](O)[C@@H](C)CN4C(=O)[C@H]([C@H](O)CC(N)=O)NC(=O)[C@H]([C@H](O)[C@@H](O)c4ccc(O)c(OS(=O)(=O)[O-])c4)NC(=O)[C@@H]4C[C@@H](O)CN4C(=O)C([C@@H](C)O)NC3=O)cc2)cc1.[Na+]` (stereo not given in full)?
**A.** IC50 [1]: 0.002 µg/mL; LC30 [2]: 3950 µg/mL; MIC [4]: 0.05 µg/mL

**Q.** Which results are given for `CCCCCCCOc1ccc2cc(C(=O)N[C@@H]3C[C@@H](O)[C@@H](O)NC(=O)[C@@H]4[C@@H](O)[C@@H](C)CN4C(=O)[C@H]([C@H](O)CC(N)=O)NC(=O)[C@H]([C@H](O)[C@@H](O)c4ccc(O)c(OS(=O)(=O)[O-])c4)NC(=O)[C@@H]4C[C@@H](O)CN4C(=O)C([C@@H](C)O)NC3=O)ccc2c1.[Na+]` (stereo not given in full)?
**A.** IC50 [1]: 0.004 µg/mL; LC30 [2]: > 10000 µg/mL; MIC [4]: 0.39 µg/mL

**Q.** Which results are given for `CCCCCCCCCCOc1ccc(C(=O)N[C@@H]2C[C@@H](O)[C@@H](O)NC(=O)[C@@H]3[C@@H](O)[C@@H](C)CN3C(=O)[C@H]([C@H](O)CC(N)=O)NC(=O)[C@H]([C@H](O)[C@@H](O)c3ccc(O)c(OS(=O)(=O)[O-])c3)NC(=O)[C@@H]3C[C@@H](O)CN3C(=O)C([C@@H](C)O)NC2=O)cc1.[Na+]` (stereo not given in full)?
**A.** IC50 [1]: 0.005 µg/mL; LC30 [2]: 10000 µg/mL; MIC [4]: 0.2 µg/mL

**Q.** Which IC50 [1] does the source give for `CCCCOc1ccc(-c2ccc(-c3ccc(C(=O)N[C@H]4C[C@@H](O)[C@@H](O)NC(=O)[C@@H]5[C@@H](O)[C@@H](C)CN5C(=O)[C@H]([C@H](O)CC(N)=O)NC(=O)[C@H]([C@H](O)[C@@H](O)c5ccc(O)c(OS(=O)(=O)O)c5)NC(=O)[C@@H]5C[C@@H](O)CN5C(=O)[C@H]([C@@H](C)O)NC4=O)cc3)cc2)cc1` (X1-[Orn(4R-OH,5R-OH)]T[Hyp][hTyr(3S-OH,4S-OH,3'-OSO3H)][Gln(3R-OH)][Pro(3S-OH,4S-Me)]; lactam 1-C) [listing 1 of 2 here] here?
**A.** 0.002 µg/mL (≈ 1.58 nM)

**Q.** And the LC30 [2]?
**A.** 370 µg/mL (≈ 292000 nM)

**Q.** With `CCCCOc1ccc(-c2ccc(-c3ccc(C(=O)N[C@H]4C[C@@H](O)[C@@H](O)NC(=O)[C@@H]5[C@@H](O)[C@@H](C)CN5C(=O)[C@H]([C@H](O)CC(N)=O)NC(=O)[C@H]([C@H](O)[C@@H](O)c5ccc(O)c(OS(=O)(=O)O)c5)NC(=O)[C@@H]5C[C@@H](O)CN5C(=O)[C@H]([C@@H](C)O)NC4=O)cc3)cc2)cc1` (X1-[Orn(4R-OH,5R-OH)]T[Hyp][hTyr(3S-OH,4S-OH,3'-OSO3H)][Gln(3R-OH)][Pro(3S-OH,4S-Me)]; lactam 1-C) [listing 2 of 2 here] as the compound, how does the MIC [4] read?
**A.** 0.0125 µg/mL (≈ 9.88 nM)

**Q.** For `CCCCCCCCOc1ccc(C(=O)N[C@H]2C[C@@H](O)[C@H](O)NC(=O)[C@@H]3[C@@H](O)[C@@H](C)CN3C(=O)[C@H]([C@H](O)CC(N)=O)NC(=O)[C@H]([C@H](O)[C@@H](O)c3ccc(O)c(OS(=O)(=O)[O-])c3)NC(=O)[C@@H]3C[C@@H](O)CN3C(=O)[C@H]([C@@H](C)O)NC2=O)cc1.[Na+]` [FR-131535] ({Benzoyl(4-octyloxy)}-[Orn(4R-OH,5S-OH)]T[Hyp][hTyr(3S-OH,4S-OH,3'-OSO3H)][Gln(3R-OH)][Pro(3S-OH,4S-Me)]; lactam 1-C), which IC50 [1] is on record?
**A.** 0.015 µg/mL

**Q.** And the LC30 [2]?
**A.** > 10000 µg/mL

**Q.** And the ED50 [3]?
**A.** 4.31 mg/kg

**Q.** And the MIC [4]?
**A.** 0.78 µg/mL

**Q.** And the ED50 [5]?
**A.** 3.71 mg/kg
